Here are results for six compounds from patent US8628961B2, “Small molecule antagonists of phosphatidylinositol-3,4,5-triphosphate (PIP3) and uses thereof” (Tufts University, priority 2010, dated 2014).

One data set deals with PDK1 PH domain (Homo sapiens (Human), UniProt O15530). The data set is described as follows: FP PIP3/PDK1 PH domain binding assay. To be noted: 15 nM TMR-conjugated PIP3, 100 nM PDK1 PH domain, 30 min. The source says:
(§1) In order to identify compounds that disrupt the interaction between PIP3 and PH domains, a high-throughput fluorescence polarization (FP)-binding assay was developed using recombinant 1-123 amino acid N-terminal fragment of human Akt1 (also referred to herein simply as Akt), encompassing the PH domain (PH123 protein), and fluorescent […] PIP3 molecule. The amino acid sequence of human Akt1 is publicly available as, for example, GenBank Accession No. NP_001014432.1 (SEQ ID NO:1), and the corresponding DNA sequence is publicly available as, for example, GenBank Accession No. NM_001014432. Briefly, 5 μM recombinant GST fusion proteins containing 1-123 a.a. N-terminal fragment of human Akt1 (PH 123) or 100 nM 441-551 a.a. region of human PDK1 were incubated with 15 nM TMR-labeled PIP3, PIP2, or PIP5 in buffer containing 50 mM Tris-HCl (pH 7.5), 150 mM NaCl, and 5 mM b-ME for 15 min at room temperature in the dark. FP values were determined using Wallac Victor 3 plate reader. For the primary screen, 50,000 diverse small molecules from Harvard Institute of Chemistry and Cell Biology were screened (iccb.med.harvard.edu). Incubations were carried out for 1 hr. For secondary assays, PIT compounds were added at various concentrations (6.25, 12.5, 25, 50, 100, 150 and 200 μM), followed by a 30 min incubation. The inhibition rates were calculated as inhibition rate=[1−(compound-treated group/control group)]×100%, and IC50 value was determined using Origin6 software (MicroCal, LLC, Northampton, Mass.).

Another data set concerns the target GRP1 PH domain (Homo sapiens, UniProt O43739). The data set is described as follows: FP PIP3/GRP1 PH domain binding assay. To be noted: 15 nM TMR-conjugated PIP3, 100 nM GRP1 PH domain, 30 min.
For data set [1], the system named is U87MG cells. As to the kind of experiment: cells. The class given is cell-based. To be noted: for IC50: Homo sapiens, U-87 MG, U87MG cells, 48 hr, ATP assay, read-out: Cell Viability IC50. As to the method: Based on the critical role of PIP3-dependent […] signaling in the regulation of cell survival, the effect of PIT-1 on the cancer cell viability was tested. Cancer cells were seeded into 96-well plates (white plates for ATP assay; black plates for fluorescent assay; clear plates for MTS assay) at the density of 5-10×10^3 cells per well in 100 μl of the appropriate media. Compounds were added at a series of concentrations and incubated for different times. For the ATP assay, a luminescence-based commercial kit (CellTiter-Glo, Promega, Madison, Wis.) was used. Thirty microliters of cell lysis/ATP detection reagent was added to each well, mixed for 10 min at room temperature, and the luminescence was measured using a Wallac Victor 3 plate reader (Perkin-Elmer, Wellesley, Mass.). For the MTS assay, a CellTiter 96 AQueous Non-Radioactive Cell Proliferation Assay Kit (Promega, Madison, Wis., USA) was used. Twenty microliters of the combined MTS/PMS solution was added into each well, incubated for 4 hr at 37° C., and the absorbance at 490 nm was measured using a Wallac Victor 3 plate reader. For the Sytox cell death assay, measuring loss of plasma membrane integrity, cells were incubated with 1 μM Sytox Green reagent (Molecular Probes, Eugene, Oreg.) for 30 min at 37° C. and the fluorescence intensity was measured using Wallac Victor 3 plate reader with excitation at 485 nm and emission at 545 nm. Next, 5 μl of 20% (v/v) Triton X-100 solution was added to each well and incubated for 1 hr at 37° C., and the signal was measured again. The ratio of values (percentage of dead cells in each well) before and after Triton X-100 treatment was calculated and normalized to the relevant controls not subjected to the cytotoxic stimuli. IC50 values were determined using Origin6 software (MicroCal, LLC, Northampton, Mass.).
To measure induction of cell death by PIT-1 derivatives, U87MG cells were incubated with PITs (1.56-300 μM) for 48 hr. Cell viability was determined using ATP assay.

The target in data set [2] is T1, Akt PH domain (Homo sapiens (Human), UniProt P31749). As to the kind of experiment: Fluorescence polarization (FP) PIP3/Akt PH domain binding assay. The settings on record: for IC50: 15 nM TMR-conjugated PIP3, PITs 6.25-200 μM, 30 min.
Source text: as §1
Target sequence in this assay (P31749 1-123): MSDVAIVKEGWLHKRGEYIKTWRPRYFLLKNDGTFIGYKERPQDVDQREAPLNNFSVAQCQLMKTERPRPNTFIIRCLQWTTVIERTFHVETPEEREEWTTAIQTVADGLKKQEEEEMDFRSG
(Polarisation of emitted light reports the rotation of a fluorescent probe.)

The subject of another data set is PI3K-PDK1-Akt pathway. The data set is described as follows: PIP3-regulated phosphorylation events in U87MG cells. The class given is cell-based, human. As for the experimental part:
The effect of PIT-1 on PIP3-mediated signaling was examined in U87MG glioblastoma cells, which show elevated basal levels of PIP3 due to the loss of PTEN. Pore N et al. (2003) Cancer Res 63:236-41.

Data set [3] addresses T1, Akt PH domain. The data set is described as follows: PH domain translocation assay (GFP fusion, plasma membrane). Type of data set: cell-based. To be noted: PDGF stimulation. As to the method: Cells were transfected with the corresponding GFP-fusion vectors, serum starved overnight, and incubated with 100 μM PITs or PIT-1 is for 2 hr, followed by stimulation with 100 ng/ml PDGF or 250 ng/ml PMA for 5 min. The translocation was analyzed using fluorescent microscope and was quantitated by counting the number of cells with translocated PH domains in five random fields.
To begin characterizing cellular activity of PITs, a PH domain translocation assay was performed, measuring PIP3-induced association of GFP-fused PH domains with the plasma membrane. […] Varnai P et al. (1999) J Biol Chem 274:10983-9. Several PH-domain-containing proteins, which are known to bind PIP3 specifically and efficiently, were examined. […] Oikawa T et al. (2004) Nat Cell Biol 6:420-6.
Target sequence in this assay (P31749 5-108): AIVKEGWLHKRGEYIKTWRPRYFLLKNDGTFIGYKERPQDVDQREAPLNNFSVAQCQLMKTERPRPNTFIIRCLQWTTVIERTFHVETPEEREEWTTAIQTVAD

Data set [4] concerns U87MG cells. As to the kind of experiment: Combination with Akt kinase inhibitors in U87MG cells (western blot, ATP assay). Type of data set: cell-based, human. As for the experimental part:
U87MG cells were treated with 100 μM PIT-1, or 10 μM Akt inhibitor VIII (Calbiochem) or Akt inhibitor (Calbiochem), or 100 μM PIT-1 together with 10 μM Akt inhibitor VIII or Akt inhibitor, for 12 hr and then phosphorylation events were evaluated by western blot.

Each structure is given as a SMILES string.

Sequence of PDK1 PH domain (O15530 441-551): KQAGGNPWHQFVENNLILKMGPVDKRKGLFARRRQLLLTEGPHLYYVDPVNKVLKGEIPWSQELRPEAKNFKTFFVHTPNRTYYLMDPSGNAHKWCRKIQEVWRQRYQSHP

The term IC50 denotes the point on the concentration scale where inhibition reaches its midpoint. As a reminder, the melting point is the temperature, or range, at which the solid turns liquid. In turn, `Cc1cc(C)cc(C(=O)NC(=S)Nc2c(O)cc(C(F)(F)F)cc2C(F)(F)F)c1` [PIT-5, N-(2-Hydroxy-4,6-bis(trifluoromethyl)phenylcarbamothioyl)-3,5-dimethylbenzamide] had a melting point of 167 to 168 °C. The compound also showed an IC50 at PDK1 PH domain of more than 200 µM. The same compound registered an IC50 at GRP1 PH domain of more than 200 µM. The IC50 in the data set with U87MG cells [1] was 18.8 ± 1.7 µM. On Akt PH domain [2], the “Akt potency and selectivity compared to PIT-1” value (from here on “Akt potency and selectivity”) was “improved Akt potency and selectivity compared to PIT-1”; the IC50 was determined as 20.8 ± 2.5 µM.

Regarding `Cc1cc(C)cc(C(=O)NC(=S)Nc2c(O)cc(C)c(Br)c2C)c1` [PIT-6, N-(3-Bromo-6-hydroxy-2,4-dimethylphenylcarbamothioyl)-3,5-dimethylbenzamide], the melting point was 164.5 to 166 °C. This compound showed an IC50 on PDK1 PH domain of more than 200 µM. The same compound returned an IC50 on GRP1 PH domain of more than 200 µM. For the same compound, the IC50 in the data set on U87MG cells [1] came out at 12.6 ± 2.1 µM. On Akt PH domain [2], the “Akt potency and selectivity” value is “improved Akt potency and selectivity compared to PIT-1”; the IC50 is 18.1 ± 3.1 µM.

Compound `Cc1cc(C)cc(C(=O)NC(=S)Nc2c(O)cc(C)c(Cl)c2C)c1` [PIT-3, N-(3-Chloro-6-hydroxy-2,4-dimethylphenylcarbamothioyl)-3,5-dimethylbenzamide] displayed a melting point of 185 to 186 °C. At PDK1 PH domain, this compound displayed an IC50 of 107 ± 3.9 µM. This compound also showed a half-inhibitory concentration (IC50) at GRP1 PH domain of more than 200 µM. Moreover, in the data set on U87MG cells [1], the IC50 worked out at 12.4 ± 0.9 µM. Further, at Akt PH domain [2], the “Akt potency and selectivity” value was “improved Akt potency and selectivity compared to PIT-1”; the IC50 stood at 17.5 ± 1.6 µM.

For the compound `Cc1cc(C)cc(C(=O)NC(=S)Nc2cc(-c3ccccc3)ccc2O)c1` [PIT-7, N-(4-Hydroxybiphenyl-3-ylcarbamothioyl)-3,5-dimethylbenzamide], the 50% inhibitory concentration (IC50) is 52.3 ± 2.3 µM at PDK1 PH domain, more than 200 µM on GRP1 PH domain, 6.6 ± 0.3 µM with U87MG cells [1] and 13.4 ± 2.1 µM on Akt PH domain [2]. Further, the “PI3K-PDK1-Akt signaling in U87MG cells” value in the data set on PI3K-PDK1-Akt pathway is “strongest activity”. The “cytotoxicity / reduction of cancer cell viability relative to other PITs” value in the data set with U87MG cells [1] is reported as “strongest activity”.

In turn, `Cc1cc(C)cc(C(=O)NC(=S)Nc2cc(C(F)(F)F)ccc2O)c1` [PIT-4, N-(2-Hydroxy-5-(trifluoromethyl)phenylcarbamothioyl)-3,5-dimethylbenzamide] returned a melting point of 208 to 209 °C. Further, the 50% inhibitory concentration (IC50) on PDK1 PH domain is more than 200 µM. On GRP1 PH domain, this compound returned an IC50 of more than 200 µM. In addition, the IC50 in the data set on U87MG cells [1] was determined as 20.7 ± 3.3 µM. At Akt PH domain [2], the “Akt potency and selectivity” value is “improved Akt potency and selectivity compared to PIT-1”; the IC50 came out at 22.6 ± 3 µM.

`CCN(CC)CCCCN1c2ccccc2Oc2ccc(Cl)cc21` [Akt inhibitor X]: the “plasma membrane translocation of Akt PH domain” value on Akt PH domain [3] was “Neither Akt inhibitor X nor allosteric inhibitor VIII blocked membrane translocation”. In the data set with U87MG cells [4], the “combination of Akt inhibitors VIII and X” value was “no additive effect”.
